Test results published in patent publication US20160081309A1, “FRUCTOBACILLUS AS A PROBIOTIC FOR HONEYBEES” (Indiana University Research & Technology Corporation, priority 2014, published 2016).

How the values were obtained:
[1] = system: Fructobacillus sp.; assay: Antibiotic sensitivity test, soft agar overlay with antibiotic discs; format: cell-based; conditions: Fructobacillus soft MRS agar overlay, disc content 5-30 mcg as given per antibiotic; for Zone of Inhibition: BBL Sensi-Disc
Method: Evolutionary analyses were conducted in MEGA6 using the 16S rRNA gene sequences and using a Maximum Likelihood method based on the General Time Reversible Model with a gamma distribution, invariable sites and 100 bootstrap replicates (Tamura et al. (2013) Mol Biol Evol, 30:2725-2729). For antibiotic sensitivity tests, overnight cultures of Fructobacillus sp. were mixed with soft MRS agar and overlayed onto MRS plates onto which an antibiotic impregnated disc had been placed. Diameters of zones of inhibition were measured around each antibiotic disc using a ruler. Antibiotics used were BBL Sensi-Disc tetracycline 30 mcg, ampicillin with sulbactam 20 mcg, rifampin 5 mcg, ciprofloxacin 5 mcg, and vancomycin 30 mcg.
Honey bees are commonly prophylactically treated with oxytetracycline for the prevention of foulbrood diseases caused by the bacteria Melissococcus plutonius and Paenibacillus larvae. […] The bacterial strain's resistance to antibiotics was determined, as treatment might alter the abundance of Fructobacillus in the hive. Using soft agar overlays, Fructobacillus cultures were exposed to five different antibiotics (tetracycline, ampicillin (with sulbactam), rifampicin, ciprofloxacin, and vancomycin), and the resulting zones of inhibition were measured (Table 3). […] These two antibiotics are commonly used in agriculture.

[2] = system: Fructobacillus FJL; assay: Carbon source utilization assay (Biolog MT2 plates); format: cell-based; conditions: 2% carbohydrate, Biolog MT2, 30° C. aerobic; versus water-only controls, unpaired t-test p≦0.001
Method: The same Fructobacillus isolate as used for co-culture assays was grown for 72 hours in MRS broth at 30° C. under aerobic conditions. Cells were pelleted via centrifugation and the supernatant was removed. The pellet was resuspended in a buffer of 0.1M Tris-HCl (pH 6.5). This centrifugation and resuspension process was performed twice to ensure removal of all residual MRS. 15 μl of cell suspension was added to each well of a Biolog MT2 plate (Biolog Inc.). To this, 150 μl of 2% carbohydrate solutions were added to the wells, with each carbohydrate repeated in triplicate. Additionally, water control wells were established in triplicate, inoculated with cell suspension and filtered, autoclaved water. […] Plates were read via spectrophotometry at A590 immediately following inoculation in order to establish as baseline. Plates were incubated aerobically at 30° C., and A590 readings were taken every 24 hours. […] To assess whether a carbon source was utilized, absorbance readings from time points with peak absorbance were compared to absorbance of the initial time point. Absorbance in water control wells was subtracted from absorbance in carbohydrate containing wells. […] A carbon source was determined to have been utilized by Fructobacillus if the difference was statistically significant with a p-value of 0.001 or lower.

Structure (SMILES): O=C(O)c1cn(C2CC2)c2cc(N3CCNCC3)c(F)cc2c1=O [Ciprofloxacin]
- Zone of Inhibition [1]: 9 mm
- Interpretation (antibiotic sensitivity) [1]: Resistant

Structure (SMILES): CO[C@H]1/C=C/O[C@@]2(C)Oc3c(C)c(O)c4c(O)c(c(/C=N/N5CCN(C)CC5)c(O)c4c3C2=O)NC(=O)/C(C)=C\C=C\[C@H](C)[C@H](O)[C@@H](C)[C@@H](O)[C@@H](C)[C@H](OC(C)=O)[C@@H]1C [Rifampin]
- Zone of Inhibition [1]: 25 mm
- Interpretation (antibiotic sensitivity) [1]: Susceptible

Structure (SMILES): CN(C)[C@@H]1C(O)=C(C(N)=O)C(=O)[C@@]2(O)C(O)=C3C(=O)c4c(O)cccc4[C@@](C)(O)[C@H]3C[C@@H]12 [Tetracycline]
- Zone of Inhibition [1]: 32 mm

Structure (SMILES): CN[C@H](CC(C)C)C(=O)N[C@H]1C(=O)N[C@@H](CC(N)=O)C(=O)N[C@H]2C(=O)N[C@H]3C(=O)N[C@H](C(=O)N[C@H](C(=O)O)c4cc(O)cc(O)c4-c4cc3ccc4O)[C@H](O)c3ccc(c(Cl)c3)Oc3cc2cc(c3O[C@@H]2O[C@H](CO)[C@@H](O)[C@H](O)[C@H]2O[C@H]2C[C@](C)(N)[C@H](O)[C@H](C)O2)Oc2ccc(cc2Cl)[C@H]1O [Vancomycin]
- Zone of Inhibition [1]: 0 mm
- Interpretation (antibiotic sensitivity) [1]: Resistant

Structure (SMILES): O=C(CO)[C@@H](O)[C@H](O)[C@H](O)CO [fructose]
- Utilization of carbon source by Fructobacillus [2]: capable of utilizing
